Residues, ends and D or L forms follow the SMILES beside them. *: point of attachment. Octanoyl = CCCCCCCC(=O)*; Boc = CC(C)(C)OC(=O)*
Experiments:
[1] = target: SARS-CoV-2 M^pro (Severe acute respiratory syndrome coronavirus 2, UniProt P0DTD1); type: binding; conditions: ITC
[2] = system: SARS-CoV-2 RG2674 (South African); experiment: Antiviral CPE reduction assay in Vero cells, RG2674; type: cell-based; conditions: 100 CCID50, CPE, 5 days
[3] = Stability test in aqueous solution; type: physicochemical; conditions: PBS pH 7.0, 25 °C and 37 °C, 3, 6, 8 and 24 h, HPLC
[4] = system: Vero cells
[5] = system: M^pro; conditions: octapeptide progenitor, earlier work; cited from earlier work
[6] = system: SARS-CoV-2; conditions: read-out: anti-SARS-CoV-2 activity EC50; cited from earlier work

| Molecule | Stoichiometry (N) [1] | Cytotoxicity, Cell morphology (MCC) [4] | EC50 [6] | further results |
| --- | --- | --- | --- | --- |
| CC(=O)NCC(=O)N[C@@H](Cc1ccccc1)C(=O)N[C@H](C=O)Cc1c[nH]cn1 [compound 4, Ac-Gly-Phe-His-CHO] (Ac-Gly-Phe-His-aldehyde) | 1.040 ± 0.012 | ≥100 μM |  | Antiviral activity (EC50) RG2674 [2]: ineffective; Stability in aqueous solution [3]: stable |
| CC(C)(C)OC(=O)NCC(=O)N[C@@H](Cc1ccccc1)C(=O)N[C@H](C=O)Cc1c[nH]cn1 [compound 57, Boc-Gly-Phe-His-CHO] (Boc-Gly-Phe-His-aldehyde) | 0.991 ± 0.015 | ≥100 μM |  |  |
| CCCCCCCC(=O)NCC(=O)N[C@@H](Cc1ccccc1)C(=O)N[C@H](C=O)Cc1c[nH]cn1 [compound 58, Octanoyl-Gly-Phe-His-CHO] (Octanoyl-Gly-Phe-His-aldehyde) | 0.966 ± 0.013 | ≥100 μM |  |  |
| AT1001 |  |  |  | enzymatic inhibition activity (partial inhibition) [5]: about 30% |
| Cc1cc(C(=O)N[C@@H](C)C(=O)N[C@H](C(=O)N[C@@H](CC(C)C)C(=O)N[C@H](/C=C/C(=O)OCc2ccccc2)C[C@@H]2CCNC2=O)C(C)C)no1 [N3, reference compound] |  |  | 16.8 ± 1.7 µM |  |
| Ac-GGVLVQPG-NH2 [peptide 2] |  |  | 17.6 ± 2.4 µM |  |

Reference: publication PMC9579148 (European Journal of Medicinal Chemistry, 2022)
